For the data set, the system named is E6/E7LOW human hepatocytes. The data set is described as follows: Puromycin toxicity curves, LIVE/DEAD assay. It is filed as cell-based. The note with it: 653 (female) genotype. Here is the method:
E6/E7LOW human hepatocytes puromycin toxicity curves: Puromycin (13884, Cayman chemical) was two-fold serially diluted from 10 μg/ml to 0.3 μg/ml in proliferation medium and applied to E6/E7LOW human hepatocytes growing in 96-well plate format. The cells were monitored and imaged daily and on the 3rd day post exposure were analyzed with a LIVE/DEAD assay (L3224, ThermoFischer). The puromycin concentration killing practically all cells in ˜3 days was defined as 2.5 μg/ml for the 653 (female) genotype and 5 µg/ml for the 422 (male) genotype cells.

`COc1ccc(C[C@H](N)C(=O)N[C@H]2[C@@H](O)[C@H](n3cnc4c(N(C)C)ncnc43)O[C@@H]2CO)cc1` [Puromycin]: the “puromycin concentration killing practically all cells in ˜3 days” value came out at 2.5 µg/mL.

The record behind these values is patent publication US20250367329A1, “GENE THERAPY FOR TREATING MITOCHONDRIAL STRESS” (YISSUM RESEARCH DEVELOPMENT COMPANY OF THE HEBREW …, priority 2023, published 2025).
